{
  "source": "paper PMC6201084",
  "about": "(Antimicrobial Agents and Chemotherapy, 2018)",
  "key": {"[1]": {"target": "neuraminidase (NA) of influenza B/Singapore/GP702/2015 (MUT-N197, D197N NA substitution) (Influenza B virus, UniProt A0A1S5RAG6, D197N)", "assay_type": "biochemical"}, "[2]": {"target": "neuraminidase (NA) of influenza B/Perth/136/2015 (MUT-Y273, H273Y NA substitution) (Influenza B virus, UniProt A0A1S5RAG6, H273Y)", "assay_type": "biochemical"}},
  "note": "Values joined by “and” are separate entries in the source; they are usually repeats but may differ in a detail not shown here. Equal values may be shown once.",
  "data": [
    {"smiles": "CCC(CC)[C@H](NC(C)=O)[C@@H]1[C@H](O)[C@@H](C(=O)O)C[C@H]1N=C(N)N", "note": "[Peramivir, peramivir]", "values": [
      {"measurement": "Fold difference in IC50 from corresponding wild-type value", "setting": "[1]", "result": "3.0 ± 0.7 (3) fold"},
      {"measurement": "IC50", "setting": "[1]; read-out: IC50 (nM), mean ± SD", "result": 3, "unit": "nM"},
      {"measurement": "Fold difference in IC50 from corresponding wild-type value", "setting": "[2]", "result": "85 fold and 80.9 ± 6.8 (85)^b fold"},
      {"measurement": "IC50", "setting": "[2]; read-out: IC50 (nM), mean ± SD", "result": 80.9, "unit": "nM"}
    ]}
  ]
}
